Data taken from patent US12415770B2, “Modulators of liver receptor homologue 1 (LRH-1) and uses” (Emory University, priority 2017, dated 2025).

Experiments:
LRH-1 LBD = target: T1, LRH-1 LBD (Homo sapiens, UniProt O00482); test: Thermofluor (DSF) assay, purified LRH-1 LBD-His protein; type: binding; conditions: 50 μM compound; relative to DLPC-bound LRH-1; read-out: ΔTm (mean +/− SEM) (° C.)
T1 construct: LRH-1 LBD (residues 299-541) in the pMSC7 vector was expressed in BL21 (DE3) pLysS E. coli; made in house; host or cells: E. coli BL21 (DE3) pLysS
Method: Thermofluor assays—Purified LRH-1 LBD-His protein (0.2 mg/ml) was incubated overnight with 50 μM of each compound at 4° C. The final DMSO concentration in the reactions was 1%. SYPRO orange dye (Invitrogen) was then added at a 1:1000 dilution. Reactions were heated at a rate of 0.5° C. per minute, using a StepOne Plus Real Time PCR System (ThermoFisher). […] Data were analyzed by first subtracting baseline fluorescence (ligands+SYPRO with no protein) and then fitting the curves using the Bolzman equation (GraphPad Prism, v6) to determine the Tm. […]

LRH-1 = target: T2, LRH-1 (Homo sapiens, UniProt O00482); test: Luciferase reporter assay (SHP-luc) in HeLa cells transfected with full-length LRH-1; type: cell-based; conditions: for EC50 / EC50 (μM): HeLa cells, SHP-luc reporter, 24 hours, 0.03-30 μM; for Relative Efficacy: fold increase over baseline (DMSO-treated cells) relative to the fold increase induced by RJW100
T2 construct: The transfected plasmids included full-length LRH-1 in a pCI vector; expressed in transfected cells; host or cells: HeLa
Method: EC50 and Relative Activity values were calculated from luciferase reporter assays.

T1 sequence (O00482 299-541): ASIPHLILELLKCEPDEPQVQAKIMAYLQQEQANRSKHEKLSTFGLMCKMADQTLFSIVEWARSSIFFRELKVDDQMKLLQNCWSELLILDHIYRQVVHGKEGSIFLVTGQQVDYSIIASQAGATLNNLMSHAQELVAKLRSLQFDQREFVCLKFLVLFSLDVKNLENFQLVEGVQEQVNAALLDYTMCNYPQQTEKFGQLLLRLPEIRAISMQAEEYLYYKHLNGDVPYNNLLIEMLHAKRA
T2 sequence (O00482 whole entry): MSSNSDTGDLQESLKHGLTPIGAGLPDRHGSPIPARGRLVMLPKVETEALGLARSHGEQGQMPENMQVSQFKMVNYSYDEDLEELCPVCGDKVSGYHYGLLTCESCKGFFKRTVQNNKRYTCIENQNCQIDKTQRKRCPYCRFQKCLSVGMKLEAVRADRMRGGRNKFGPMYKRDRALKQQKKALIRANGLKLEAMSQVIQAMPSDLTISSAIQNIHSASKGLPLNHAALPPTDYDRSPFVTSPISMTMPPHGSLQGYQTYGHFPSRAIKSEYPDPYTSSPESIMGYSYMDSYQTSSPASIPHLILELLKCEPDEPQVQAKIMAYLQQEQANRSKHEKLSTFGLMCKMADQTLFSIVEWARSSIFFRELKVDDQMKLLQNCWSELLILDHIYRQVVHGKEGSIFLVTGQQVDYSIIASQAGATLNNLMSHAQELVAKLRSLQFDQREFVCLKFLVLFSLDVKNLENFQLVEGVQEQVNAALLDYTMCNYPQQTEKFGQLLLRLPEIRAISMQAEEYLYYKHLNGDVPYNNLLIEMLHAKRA

| SMILES | ΔTm at 50 µM (LRH-1 LBD) | EC50 (LRH-1) | Relative Efficacy (LRH-1) | EC50 (μM) (LRH-1) |
| --- | --- | --- | --- | --- |
| C=C(c1ccccc1)[C@@]12CC[C@@H](O)[C@@H]1CC(CCCCCC(=O)O)=C2c1ccccc1 (relative stereo) [Compound 7f, 6-(6-exo-hydroxy-3-phenyl-3a-(1-phenylvinyl)-1,3a,4,5,6,6a-hexahydropentalen-2-yl)hexanoic acid] | 5.5 °C | 9 µM | 2.22 |  |
| C=C(c1ccccc1)[C@@]12CC[C@H](NC(N)=O)C1CC(CCCCCC)=C2c1ccccc1 (stereo partly drawn) [Compound 36-endo, 1-((endo or exo)-5-hexyl-4-phenyl-3a-(1-phenylvinyl)-1,2,3,3a, 6,6a-hexahydropentalen-1-yl) urea] | 1.1 °C |  |  |  |
| C=C(c1ccccc1)[C@@]12CC[C@H](OS(C)(=O)=O)C1CC(CCCCCC)=C2c1ccccc1 (stereo partly drawn) [Compound 30-endo, (Endo or Exo) 5-hexyl-4-phenyl-3a-(1-phenylvinyl)-1,2,3,3a,6,6a-hexahydropentalen-1-yl methanesulfonate] | 3 °C | 0.5 µM | 0.72 |  |
| C=C(c1ccccc1)[C@@]12CC[C@H](OS(N)(=O)=O)C1CC(CCCCCC)=C2c1ccccc1 (stereo partly drawn) [Compound 28-endo, (Endo or Exo)-5-hexyl-4-phenyl-3a-(1-phenylvinyl)-1,2,3,3a,6,6a-hexahydropentalen-1-yl sulfamate] | 8 °C |  |  |  |
| C=C(c1ccccc1)C12CCC(O)C1CC(CCCCC(=O)O)=C2c1ccccc1 (stereo not drawn) [Compound 6f, 5-(6-exo-hydroxy-3-phenyl-3a-(1-phenylvinyl)-1,3a,4,5,6,6a-hexahydropentalen-2-yl)pentanoic acid] | 1.3 °C |  | 0.60 | cnc |
| C=C(c1ccccc1)[C@@]12CC[C@@H](NC(N)=O)C1CC(CCCCCC)=C2c1ccccc1 (stereo partly drawn) [Compound 36-exo, 1-((endo or exo)-5-hexyl-4-phenyl-3a-(1-phenylvinyl)-1,2,3,3a, 6,6a-hexahydropentalen-1-yl) urea] | -1.4 °C |  |  |  |
| C=C(c1ccccc1C)[C@@]12CC[C@@H](O)C1CC(CCCCCC)=C2c1ccccc1 (mixture of isomers) [Compound 21, (Exo)-5-hexyl-4-phenyl-3a-(1-(o-tolyl)vinyl)-1,2,3,3a,6,6a-hexahydropentalen-1-ol] | 1.3 °C |  |  |  |
| C=C(c1ccccc1)[C@@]12CC[C@H](NC(C)=O)C1CC(CCCCCC)=C2c1ccccc1 (stereo partly drawn) [Compound 35-endo, N-((endo or exo)-5-hexyl-4-phenyl-3a-(1-phenylvinyl)-1,2,3,3a,6,6a-hexahydropentalen-1-yl) acetamide] | 0.4 °C |  |  |  |
| C=C(c1ccccc1)[C@@]12CC[C@@H](OC(=O)NS(=O)(=O)O)C1CC(CCCCCC)=C2c1ccccc1 (stereo partly drawn) [Compound 40-exo, ((((endo or exo)-5-hexyl-4-phenyl-3a-(1-phenylvinyl)-1,2,3,3a, 6,6a-hexahydropentalen-1-yl)oxy)carbonyl)sulfamic acid] |  | > 30 µM | 0 |  |
| C=C(c1ccccc1)C12CCC(CN)C1CC(CCCCCC)=C2c1ccccc1 (stereo not drawn) [Compound 48-endo, (endo or exo) (5-hexyl-4-phenyl-3a-(1-phenylvinyl)-1,2,3,3a,6,6a-hexahydropentalen-1-10 yl)methanamine] | 0 °C |  |  |  |
| C=C(c1ccccc1)C12CC(O)C(CN)C1CC(CCCCCC)=C2c1ccccc1 (stereo not drawn) [Compound 51, 3-(aminomethyl)-5-hexyl-6-phenyl-6a-(1-phenylvinyl)-1,2,3,3a,4,6a-hexahydropentalen-2-ol] |  |  | 0.65 | cnc |
| C=C(c1ccccc1)[C@@]12CC[C@@H](OS(N)(=O)=O)C1CC(CCCCCC)=C2c1ccccc1 (stereo partly drawn) [Compound 28-exo, (Endo or Exo)-5-hexyl-4-phenyl-3a-(1-phenylvinyl)-1,2,3,3a,6,6a-hexahydropentalen-1-yl sulfamate] | 5.1 °C |  |  |  |
| C=C(c1ccccc1F)[C@@]12CC[C@@H](O)C1CC(CCCCCC)=C2c1ccccc1 (mixture of isomers) [Compound 20, (Exo)-3a-(1-(2-fluorophenyl)vinyl)-5-hexyl-4-phenyl-1,2,3,3a,6,6a-hexahydropentalen-1-ol] | 1.4 °C |  |  |  |
| C=C(c1ccccc1)C12CC(O)C(O)C1CC(CCCCCC)=C2c1ccccc1 (stereo not drawn) [Compound 52, 5-hexyl-4-phenyl-3a-(1-phenylvinyl)-1,2,3,3a,6,6a-hexahydropentalene-1,2-diol] |  | 0.01 µM | −0.25 |  |

The next lines start with the values.

| ΔTm at 50 µM (LRH-1 LBD) | EC50 (LRH-1) | Relative Efficacy (LRH-1) | EC50 (μM) (LRH-1) | SMILES |
| --- | --- | --- | --- | --- |
| 4.7 °C | 2 µM | 0.87 |  | C=C(c1ccccc1)C12CCC(O)C1CC(CCCCCCCCCCCO)=C2c1ccccc1 (stereo not drawn) [Compound 12e, Exo-5-(11-hydroxyundecyl)-4-phenyl-3a-(1-phenylvinyl)-1,2,3,3a,6,6a-hexahydropentalen-1-ol] |
| 3.7 °C | 4 µM | 1.17 |  | C=C(c1ccccc1)[C@@]12CC[C@@H](O)[C@@H]1CC(CCCCCCC(=O)O)=C2c1ccccc1 (relative stereo) [Compound 8f, 7-(6-exo-hydroxy-3-phenyl-3a-(1-phenylvinyl)-1,3a,4,5,6,6a-hexahydropentalen-2-yl)heptanoic acid] |
| 4.1 °C | 1 µM | 1.30 |  | C=C(c1ccccc1)C12CCC(O)C1CC(CCCCCCCCCO)=C2c1ccccc1 (stereo not drawn) [Compound 10e, Exo-5-(9-hydroxynonyl)-4-phenyl-3a-(1-phenylvinyl)-1,2,3,3a,6,6a-hexahydropentalen-1-ol] |
|  |  | 0.06 | cnc | C=C(c1ccc(Br)cc1)[C@@]12CC[C@@H](O)C1CC(CCCCCC)=C2c1ccccc1 (mixture of isomers) [Compound 23a, (Exo)-3a-(1-(4-bromophenyl)vinyl)-5-hexyl-4-phenyl-1,2,3,3a,6,6a-hexahydropentalen-1-ol] |
| -1.9 °C |  |  |  | C=C(c1ccccc1)[C@@]12CC[C@@H](O)C1CC(CCCCCC)=C2c1cc(O)ccc1C (mixture of isomers) [Compound 17f, (Exo)-5-hexyl-4-(5-hydroxy-2-methylphenyl)-3a-(1-phenylvinyl)-1,2,3,3a,6,6a-hexahydropentalen-1-ol] |
|  | 12 µM | 0.96 |  | C=C(c1ccccc1)C12CCC(O)C1CC(CCCCCCCC(=O)N1CCC(COP(=O)([O-])OCC[N+](C)(C)C)C1)=C2c1ccccc1 [Compound 13b, ((3R)-1-(8-(6-(exo)-hydroxy-3-phenyl-3a-(1-phenylvinyl)-1,3a,4,5,6,6a-hexahydropentalen-2-yl)octanoyl)pyrrolidin-3-yl)methyl (2-(trimethylammonio)ethyl)phosphate] |
|  | 17 µM | 3.35 |  | C=C(c1ccccc1)[C@@]12CC[C@@H](O)[C@@H]1CC(CCCCCCCC(=O)OC[C@H](COP(=O)([O-])OCC[N+](C)(C)C)OC(=O)CC)=C2c1ccccc1 [Compound 14d, (2R)-3-((8-(6-(exo)-hydroxy-3-phenyl-3a-(1-phenylvinyl)-1,3a,4,5,6,6a-hexahydropentalen-2-yl)octanoyl)oxy)-2-(propionyloxy) propyl(2-(trimethylammonio)ethyl) phosphate] |
